Values belong to the molecule of their own block, whether it stands above or below them. Starred links: 1 amine or outer side, 2 acyl side, 3 side chain; linkers in the order of their positions; H or OH if unused. Positions of bridges follow the written chain, without caps; N, C: chain ends. Non-standard residues stand in square brackets, D forms with d. Residues, ends and D or L forms follow the SMILES beside them. Chains are numbered I, II in the order given. Actinocin(9to1) = Cc1c2oc3c(C)ccc(C(=O)[*:1])c3nc-2c(C(=O)[*:2])c(N)c1=O; NMeV = CN[C@H](C(=O)O)C(C)C; Sar = CNCC(=O)O
Assays:
[1] = molecular target: T1, OCTN2 (organic cation/carnitine transporter 2) (Homo sapiens, UniProt O76082); experiment: TP_TRANSPORTER: inhibition of Carnitine uptake (Carnitine: 0.010? uM, S-methylmethionine sufonium: 500 uM) in OCTN2-expressing HEK293 cells; format: functional, cell-based; parameters: scale not given: the % may be the effect or the level left; details: HEK293 cells that express OCTN2, probe Carnitine, read-out: Activity
T1 sequence (O76082 whole entry): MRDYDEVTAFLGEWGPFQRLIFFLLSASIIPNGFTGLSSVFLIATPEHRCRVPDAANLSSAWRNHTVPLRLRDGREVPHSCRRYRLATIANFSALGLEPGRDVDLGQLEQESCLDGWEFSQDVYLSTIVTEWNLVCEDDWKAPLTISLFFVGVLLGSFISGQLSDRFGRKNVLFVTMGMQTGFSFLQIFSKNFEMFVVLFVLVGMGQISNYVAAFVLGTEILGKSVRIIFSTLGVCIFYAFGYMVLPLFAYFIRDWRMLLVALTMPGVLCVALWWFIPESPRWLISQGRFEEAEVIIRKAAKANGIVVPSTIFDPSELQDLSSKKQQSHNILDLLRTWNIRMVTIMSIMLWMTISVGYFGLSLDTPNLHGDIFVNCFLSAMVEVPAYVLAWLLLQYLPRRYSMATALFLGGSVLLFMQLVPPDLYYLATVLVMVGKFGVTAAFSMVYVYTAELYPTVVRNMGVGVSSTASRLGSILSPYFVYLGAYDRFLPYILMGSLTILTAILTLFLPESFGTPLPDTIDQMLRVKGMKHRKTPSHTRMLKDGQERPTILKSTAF

[2] = molecular target: T2, Organic cation/carnitine transporter 2 (Homo sapiens, UniProt O76082); experiment: TP_TRANSPORTER: uptake in OCTN2-expressing HEK293 cells; format: functional, cell-based
T2 sequence (O76082 whole entry): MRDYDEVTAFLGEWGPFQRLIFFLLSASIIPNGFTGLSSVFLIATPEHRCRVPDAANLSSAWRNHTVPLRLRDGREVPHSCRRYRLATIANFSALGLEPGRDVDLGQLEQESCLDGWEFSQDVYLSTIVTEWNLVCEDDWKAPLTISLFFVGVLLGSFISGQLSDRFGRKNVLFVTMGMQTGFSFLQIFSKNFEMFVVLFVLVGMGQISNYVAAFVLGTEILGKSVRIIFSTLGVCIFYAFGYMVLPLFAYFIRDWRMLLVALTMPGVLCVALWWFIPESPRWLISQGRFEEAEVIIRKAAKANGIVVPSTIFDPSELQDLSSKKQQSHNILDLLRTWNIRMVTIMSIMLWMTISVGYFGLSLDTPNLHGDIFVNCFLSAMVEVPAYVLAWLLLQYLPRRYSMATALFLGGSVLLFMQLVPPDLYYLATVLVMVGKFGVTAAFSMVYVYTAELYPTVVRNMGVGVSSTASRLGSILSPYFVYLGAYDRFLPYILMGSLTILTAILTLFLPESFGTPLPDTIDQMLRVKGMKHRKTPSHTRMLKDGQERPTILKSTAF

[3] = molecular target: T1, OCTN2 (organic cation/carnitine transporter 2); experiment: TP_TRANSPORTER: inhibition of Carnitine uptake (Carnitine: 0.010? uM, MPP+: 100 uM) in OCTN2-expressing HEK293 cells; format: functional, cell-based; parameters: scale not given: the % may be the effect or the level left; details: HEK293 cells that express OCTN2, probe Carnitine, read-out: Activity
[4] = molecular target: T1, OCTN2 (organic cation/carnitine transporter 2); experiment: TP_TRANSPORTER: inhibition of Carnitine uptake (Carnitine: 0.010? uM, Aldosterone: 500 uM) in OCTN2-expressing HEK293 cells; format: functional, cell-based; parameters: scale not given: the % may be the effect or the level left; details: HEK293 cells that express OCTN2, probe Carnitine, read-out: Activity
[5] = molecular target: T2, Organic cation/carnitine transporter 2; experiment: TP_TRANSPORTER: inhibition of Carnitine uptake (Carnitine: 0.010? uM, Arginine: 500 uM) in OCTN2-expressing HEK293 cells; format: functional, cell-based; details: hek293, 500 µM
[6] = molecular target: T2, Organic cation/carnitine transporter 2; experiment: TP_TRANSPORTER: inhibition of Carnitine uptake (Carnitine: 0.010? uM, Carnosine: 500 uM) in OCTN2-expressing HEK293 cells; format: functional, cell-based; details: hek293, 500 µM
[7] = molecular target: T1, OCTN2 (organic cation/carnitine transporter 2); experiment: TP_TRANSPORTER: inhibition of Carnitine uptake (Carnitine: 0.010? uM, Cefsulodin: 500 uM) in OCTN2-expressing HEK293 cells; format: functional, cell-based; parameters: scale not given: the % may be the effect or the level left; details: HEK293 cells that express OCTN2, probe Carnitine, read-out: Activity
[8] = molecular target: T2, Organic cation/carnitine transporter 2; experiment: TP_TRANSPORTER: inhibition of Carnitine uptake (Carnitine: 0.010? uM, Cephaloglycin: 500 uM) in OCTN2-expressing HEK293 cells; format: functional, cell-based; details: hek293, 500 µM
[9] = molecular target: T2, Organic cation/carnitine transporter 2; experiment: TP_TRANSPORTER: inhibition of Carnitine uptake (Carnitine: 0.010? uM, Cephalotin: 500 uM) in OCTN2-expressing HEK293 cells; format: functional, cell-based; details: hek293, 500 µM
[10] = molecular target: T1, OCTN2 (organic cation/carnitine transporter 2); experiment: in vitro; details: HEK293 cells that express OCTN2, probe Carnitine
Description: TP_TRANSPORTER: inhibition of Carnitine uptake (Carnitine: 0.010? uM, Cimetidine: 500 uM) in OCTN2-expressing HEK293 cells

[11] = molecular target: T1, OCTN2 (organic cation/carnitine transporter 2); experiment: in vitro; details: HEK293 cells that express OCTN2, probe Carnitine; remark: listed apart in the source
Description: TP_TRANSPORTER: inhibition of Carnitine uptake (Carnitine: 0.010? uM, Clonidine: 500 uM) in OCTN2-expressing HEK293 cells

[12] = molecular target: T1, OCTN2 (organic cation/carnitine transporter 2); experiment: TP_TRANSPORTER: inhibition of Carnitine uptake (Carnitine: 0.010? uM, Corticosterone: 500 uM) in OCTN2-expressing HEK293 cells; format: functional, cell-based; parameters: scale not given: the % may be the effect or the level left; details: HEK293 cells that express OCTN2, probe Carnitine, read-out: Activity
[13] = molecular target: T2, Organic cation/carnitine transporter 2; experiment: TP_TRANSPORTER: inhibition of Carnitine uptake (Carnitine: 0.010? uM, Creatine: 500 uM) in OCTN2-expressing HEK293 cells; format: functional, cell-based; details: hek293, 500 µM
[14] = molecular target: T2, Organic cation/carnitine transporter 2; experiment: TP_TRANSPORTER: inhibition of Carnitine uptake (Carnitine: 0.010? uM, Creatinine: 500 uM) in OCTN2-expressing HEK293 cells; format: functional, cell-based; details: hek293, 500 µM
[15] = molecular target: T1, OCTN2 (organic cation/carnitine transporter 2); experiment: TP_TRANSPORTER: inhibition of Carnitine uptake (Carnitine: 0.010? uM, Actinomycin D: 100 uM) in OCTN2-expressing HEK293 cells; format: functional, cell-based; parameters: scale not given: the % may be the effect or the level left; details: HEK293 cells that express OCTN2, probe Carnitine, read-out: Activity
[16] = molecular target: T1, OCTN2 (organic cation/carnitine transporter 2); experiment: TP_TRANSPORTER: inhibition of Carnitine uptake (Carnitine: 0.010? uM, Emetine: 500 uM) in OCTN2-expressing HEK293 cells; format: functional, cell-based; parameters: scale not given: the % may be the effect or the level left; details: HEK293 cells that express OCTN2, probe Carnitine, read-out: Activity
[17] = molecular target: T2, Organic cation/carnitine transporter 2; experiment: TP_TRANSPORTER: inhibition of Carnitine uptake (Carnitine: 0.010? uM, Furosemide: 500 uM) in OCTN2-expressing HEK293 cells; format: functional, cell-based; details: hek293, 500 µM

activity at 500 µM [1]: 8.7%
Compound: C[S+](C)CC[C@H](N)C(=O)[O-]

Compound: C[n+]1ccc(-c2ccccc2)cc1
Activity [2]: is not a substrate [-]
activity at 100 µM [3]: 69.8%

activity at 500 µM [4]: 37.1%
Compound: C[C@]12CCC(=O)C=C1CC[C@@H]1[C@@H]2[C@@H](O)C[C@]2(C=O)[C@@H](C(=O)CO)CC[C@@H]12 [ALDOSTERONE]

Compound: N=C(N)NCCC[C@H](N)C(=O)O [ARGININE]
Activity [5]: is not an inhibitor [-]

Activity [6]: is not an inhibitor [-]
Compound: NCCC(=O)N[C@@H](Cc1cnc[nH]1)C(=O)O [CARNOSINE]

activity at 500 µM [7]: 32.8%
Compound: NC(=O)c1cc[n+](CC2=C(C(=O)O)N3C(=O)[C@@H](NC(=O)[C@@H](c4ccccc4)S(=O)(=O)[O-])[C@H]3SC2)cc1 [CEFSULODIN]

Activity [8]: is not an inhibitor [-]
Compound: CC(=O)OCC1=C(C(=O)O)N2C(=O)[C@@H](NC(=O)[C@H](N)c3ccccc3)[C@H]2SC1 [CEPHALOGLYCIN]

Activity [9]: is not an inhibitor [-]
Compound: CC(=O)OCC1=C(C(=O)O)N2C(=O)[C@@H](NC(=O)Cc3cccs3)[C@H]2SC1 [CEPHALOTHIN]

Compound: CN/C(=N/CCSCc1nc[nH]c1C)NC#N [CIMETIDINE]
activity at 500 µM [10]: 66.4%
Activity [2]: is not a substrate [-]

activity at 500 µM [11]: 67.6%
Compound: Clc1cccc(Cl)c1N=C1NCCN1 [CLONIDINE]

activity at 500 µM [12]: 9.3%
Compound: C[C@]12C[C@H](O)[C@H]3[C@@H](CCC4=CC(=O)CC[C@@]43C)[C@@H]1CC[C@@H]2C(=O)CO [CORTICOSTERONE]

Activity [13]: is not an inhibitor [-]
Compound: CN(CC(=O)O)C(=N)N [CREATINE]

Activity [14]: is not an inhibitor [-]
Compound: CN1CC(=O)NC1=N [CREATININE]

activity at 100 µM [15]: 69%
Activity [2]: is not a substrate [-]
Compound: Cc1c2oc3c(C)ccc(C(=O)N[C@@H]4C(=O)N[C@H](C(C)C)C(=O)N5CCC[C@H]5C(=O)N(C)CC(=O)N(C)[C@@H](C(C)C)C(=O)O[C@@H]4C)c3nc-2c(C(=O)N[C@@H]2C(=O)N[C@H](C(C)C)C(=O)N3CCC[C@H]3C(=O)N(C)CC(=O)N(C)[C@@H](C(C)C)C(=O)O[C@@H]2C)c(N)c1=O [DACTINOMYCIN] (I: T[dV]P[Sar][NMeV] / II: T[dV]P[Sar][NMeV]; ester I:1-I:C, II:1-II:C; linker I:N-II:N via Actinocin(9to1))

Compound: CC[C@H]1CN2CCc3cc(OC)c(OC)cc3[C@@H]2C[C@@H]1C[C@H]1NCCc2cc(OC)c(OC)cc21 [EMETINE]
activity at 500 µM [16]: 16.6%

Activity [17]: is not an inhibitor [-]
Compound: NS(=O)(=O)c1cc(C(=O)O)c(NCc2ccco2)cc1Cl [FUROSEMIDE]

— ChEMBL document CHEMBL2073748, “Na(+)-dependent carnitine transport by organic cation transporter (OCTN2): its pharmacological and toxicological relevance” (J Pharmacol Exp Ther, 1999)
